Assay results from patent publication US20090270435A1 (priority 2006, published 2009).
Counter-ions that a name gives are not always drawn.

Biological target: T1, ACC1 from rat liver (Rattus norvegicus, UniProt P11497)
T1 construct: The livers (for ACC1 preparation) or skeletal muscle tissue (for ACC2 preparation) are removed; from tissue; host or cells: liver of male CD rats (fasted, then fed a high sucrose diet)
Experiment: Direct inhibition of ACC1 activity (14C-bicarbonate incorporation)
Type: biochemical
Conditions: ACC1 from rat liver
Method: [1] Preparation of ACC1 and ACC2.
Male CD rats weighing 150-200 g are fasted for 2 days and then fed a high sucrose diet (AIN-76A rodent diet; Cat # D10001, Research Diets Inc., New Brunswick, N.J.), for 3 days at which time they are sacrificed by CO2 asphyxiation. The livers (for ACC1 preparation) or skeletal muscle tissue (for ACC2 preparation) are removed, rinsed in ice-cold phosphate-buffered saline (PBS), and homogenized in 5 volumes of homogenization buffer (50 mM potassium phosphate, pH 7.5, 10 mM EDTA, 10 mM 2-mercaptoethanol, 2 mM benzamidine, 0.2 mM phenylmethylsulfonylfluoride (PMSF), 5 mg/L each leupeptin, aprotinin, and antitrypsin) in a Waring® blender for 1 minute at 4° C. All subsequent operations are carried out at 4° C. The homogenate is made 3% with respect to polyethylene glycol (PEG) by the addition of 50% PEG solution and centrifuged at 20,000×g for 15 minutes. The resulting supernatant is adjusted to 5% PEG with the addition of 50% PEG solution and stirred for 5 minutes. The pellet (contains ACC activity) is collected by centrifugation at 20,000×g for 20 minutes, rinsed with Ice-cold doubly distilled water to remove excess PEG and re-suspended in one-fourth the original homogenate volume with homogenization buffer. Ammonium sulfate (200 g/liter) is slowly added with stirring. After 45 minutes the enzyme is collected by centrifugation for 30 minutes at 20,000×g, re-suspended in 10 ml of 50 mM HEPES, pH7.5, 0.1 mM DTT, 1.0 mM EDTA, and 10% glycerol and desalted on a Sephadex™ G-25 column (2.5 cm-x 50 cm) (Pharmacia, Piscataway N.J. now GE Healthcare) […] equilibrated with the same buffer. The desalted enzyme preparation is stored in aliquots at −70° C. Immediately prior to use, frozen ACC1 or ACC2 aliquots are thawed, diluted to 500 μg/ml in buffer containing 50 mM HEPES, pH7.5, 1.0 mM MgCl2, 10 mM tripotassium citrate, 2.0 mM dithiothreitol (DTT), and 0.75 mg/ml fatty acid-free bovine serum albumin (BSA) and pre-incubated at 37° C. for 30 minutes.
[2] Measurement of ACC inhibition. The procedures for measuring ACC1 inhibition and ACC2 inhibition are identical except for the source of the isozyme. For measurement of ACC activity and assessment of ACC inhibition, test compounds are dissolved in dimethylsulfoxide (DMSO) and 1 μL aliquots are placed in 0.5 ml polypropylene tubes. Control tubes contain 1 μL of DMSO alone. Tubes are incubated at 37° C. in a constant temperature water bath. […] The reaction is then initiated by the addition of 10 μL of preincubated ACC fraction prepared as described above. After 7 minutes the reaction is terminated by the addition of 50 μL of 6N HCl and a 150 μL aliquot of the reaction mixture is transferred to glass scintillation vials and evaporated to dryness at 90° C. for at least 1 hour. The dried vials are then cooled, 0.5 ml of water and 5.5 ml of Ready Safe liquid scintillation fluid (Beckman Coulter Inc., Fullerton, Calif.) are added, and the radioactivity is determined using a liquid scintillation counter. Tubes that received HCl before ACC served as blanks.

Row | Compound | IC50
1 | Cc1[nH]c2ccc(C(=O)N3CCC4(CC3)CC(=O)c3cc(Cl)ccc3O4)cc2c1C [Ex. L12, 6-chloro-1′-[(2,3-dimethyl-1H-indol-5-yl)carbonyl]spiro[chromene-2,4′-piperidin]-4(3H)-one] | < 1 µM
2 | Cc1cc2c(cc1Cl)C(=O)CC1(CCN(C(=O)c3cccc4[nH]cnc34)CC1)O2 [Ex. L18, 1′-(1H-benzimidazol-4-ylcarbonyl)-6-chloro-7-methylspiro[chromene-2,4′-piperidin]-4(3H)-one] | 2.01 µM
3 | Cc1cc2c(cc1C)C(=O)CC1(CCN(C(=O)c3ccc4c(c3)nnn4C)CC1)O2 [Ex. L41, 6,7-dimethyl-1′-[(1-methyl-1H-1,2,3-benzotriazol-5-yl)carbonyl]spiro[chromene-2,4′-piperidin]-4(3H)-one] | < 3 µM
4 | 1′-1H-indol ylcarbonyl)-6,7-dimethylspiro[chromene-2,4′-piperidin]-4(3H)-one trifluoroacetic acid salt [Ex. L14] | 0.479 µM
5 | O=C1CC2(CCN(C(=O)c3ccc4nc[nH]c4c3)CC2)Oc2ccc(Cl)cc21 [Ex. L34] | > 1 µM
6 | Cc1nc2c(C(=O)N3CCC4(CC3)CC(=O)c3cc(C)c(C)cc3O4)cccc2[nH]1 [Ex. L19, 6,7-dimethyl-1′-[(2-methyl-1H-benzimidazol-4-yl)carbonyl]spiro[chromene-2,4′-piperidin]-4(3H)-one trifluoroacetic acid salt] | < 3 µM
7 | Cc1cc(C)c2c(c1)C(=O)CC1(CCN(C(=O)c3cccc4cn[nH]c34)CC1)O2 [Ex. H13, 1′-(1H-indazol-7-ylcarbonyl)-6,8-dimethylspiro[chromen-2,4′-piperidin]-4(3H)-one] | 1.32 µM

Continued, values first:

Row | IC50 | Compound
8 | 0.59 µM | Cc1cc2c(c(C)c1Cl)C(=O)CC1(CCN(C(=O)c3cccc4cn[nH]c34)CC1)O2 [Ex. H8, 6-chloro-1′-(1H-indazol-7-ylcarbonyl)-5,7-dimethylspiro[chromene-2,4′-piperidin]-4(3H)-one]
9 | 0.415 µM | Cc1cc2c(cc1C)C(=O)CC1(CCN(C(=O)c3cccc4c3ccn4C)CC1)O2 [Ex. L15, 6,7-dimethyl-1′-[(1-methyl-1H-indol-4-yl)carbonyl]spiro[chromene-2,4′-piperidin]-4(3H)-one]
10 | 0.39 µM | CCc1nc2cc(C(=O)N3CCC4(CC3)CC(=O)c3ccccc3O4)ccc2n1-c1cccc(OC)c1 [Ex. L30, 1′-{[2-ethyl-1-(3-methoxyphenyl)-1H-benzimidazol-5-yl]carbonyl}spiro[chromene-2,4′-piperidin]-4(3H)-one]
11 | 0.368 µM | Cc1cc2ccc(C(=O)N3CCC4(CC3)CC(=O)c3cc(C)c(C)cc3O4)cc2[nH]1 [Ex. L3, 6,7-dimethyl-1′-[(2-methyl-1H-indol-6-yl)carbonyl]spiro[chromene-2,4′-piperidin]-4(3H)-one trifluoroacetic acid salt]
12 | 0.279 µM | COc1cc(C)cc2c1C(=O)CC1(CCN(C(=O)c3cccc4cn[nH]c34)CC1)O2 [Ex. H4, 1′-(1H-indazol-7-ylcarbonyl)-5-methoxy-7-methylspiro[chromene-2,4′-piperidin]-4(3H)-one]
13 | 0.264 µM | Cc1cc2c(cc1Br)C(=O)CC1(CCN(C(=O)c3cccc4cn[nH]c34)CC1)O2 [Ex. H3, 6-bromo-1′-(1H-indazol-7-ylcarbonyl)-7-methylspiro[chromene-2,4′-piperidin]-4(3H)-one]
14 | 0.216 µM | COc1ccc2c(c1)C(=O)CC1(CCN(C(=O)c3ccc4c(cnn4C)c3)CC1)O2 [Ex. D2, 6-methoxy-1′-[(1-methyl-1H-indazol-5-yl)carbonyl]spiro[chromene-2,4′-piperidin]-4(3H)-one]
15 | 0.209 µM | Cc1cc(C(=O)N2CCC3(CC2)CC(=O)c2c(Cl)cc(Cl)cc2O3)cc2cn[nH]c12 [Ex. A30, 5,7-dichloro-1′-[(7-methyl-1H-indazol-5-yl)carbonyl]spiro[chromene-2,4′-piperidin]-4(3H)-one]
16 | 0.18 µM | 5,7-dichloro-1′-[(7-chloro-1H-indazol-5-yl)carbonyl]spiro[chromene-2,4′-piperidin]-4(3H)-one [Ex. B9]
17 | 0.125 µM | Cc1cc(C(=O)N2CCC3(CC2)CC(=O)c2cc(C(=O)N(C)C)ccc2O3)cc2cn[nH]c12 [Ex. A27, N,N-dimethyl-1′-[(7-methyl-1H-indazol-5-yl)carbonyl]-4-oxo-3,4-dihydrospiro[chromene-2,4′-piperidine]-6-carboxamide]
18 | 0.121 µM | Cc1cc2c(cc1C)C(=O)CC1(CCN(C(=O)c3ccc4ncccc4c3)CC1)O2 [Ex. L43, 6,7-dimethyl-1′-(quinolin-6-ylcarbonyl)spiro[chromene-2,4′-piperidin]-4(3H)-one trifluoroacetic acid salt]
19 | 0.0966 µM | Cc1cc(C(=O)N2CCC3(CC2)CC(=O)c2cc(C(F)(F)F)ccc2O3)cc2cn[nH]c12 [Ex. A20, 1′-[(7-methyl-1H-indazol-5-yl)carbonyl]-6-(trifluoromethyl)spiro[chromene-2,4′-piperidin]-4(3H)-one]
20 | 0.0815 µM | COc1cc(Cl)cc2c1C(=O)CC1(CCN(C(=O)c3cc(C)c4[nH]ncc4c3)CC1)O2 [Ex. A19, 7-chloro-5-methoxy-1′-[(7-methyl-1H-indazol-5-yl)carbonyl]spiro[chromene-2,4′-piperidin]-4(3H)-one]
21 | 0.0579 µM | Cc1cc2c(cc1C)C(=O)CC1(CCN(C(=O)c3ccc4c(cnn4C)c3)CC1)O2 [Ex. D1, 6,7-dimethyl-1′-[(1-methyl-1H-indazol-5-yl)carbonyl]spiro[chromene-2,4′-piperidin]-4(3H)-one]
22 | 0.0492 µM | COc1ccc2c(c1)C(=O)CC1(CCN(C(=O)c3ccc4c(C)n[nH]c4c3)CC1)O2 [Ex. F2, 6-methoxy-1′-[(3-methyl-1H-indazol-yl)carbonyl]spiro[chromene-2,4′-piperidin]-4(3H)-one]
23 | 0.0226 µM | CCc1cc(C(=O)N2CCC3(CC2)CC(=O)c2cc(OC)ccc2O3)cc2cn[nH]c12 [Ex. C2, 1′-[(7-ethyl-1H-indazol-5-yl)carbonyl]-6-methoxyspiro[chromene-2,4′-piperidin]-4(3H)-one]

Same assay, conditions: Table of Examples M1-M36

Row | IC50 | Compound
24 | 0.319 µM | O=C1CC2(CCN(C(=O)c3cccc(-c4cc[nH]n4)c3)CC2)Oc2cc(Cl)cc(Cl)c21 [Ex. M16, 5,7-dichloro-1′-[3-(1H-pyrazol-3-yl)benzoyl]spiro[chromene-2,4′-piperidin]-4(3H)-one]
25 | 0.14 µM | Cc1cc2c(cc1Cl)OC1(CCN(C(=O)c3cccc(-c4cc[nH]n4)c3)CC1)CC2=O [Ex. M7, 7-chloro-6-methyl-1′-[3-(1H-pyrazol-3-yl)benzoyl]spiro[chromene-2,4′-piperidin]-4(3H)-one]
26 | 0.205 µM | Cc1ccc2c(c1)OC1(CCN(C(=O)c3cccc(-c4cc[nH]n4)c3)CC1)CC2=O [Ex. M12, 7-methyl-1′-[3-(1H-pyrazol-3-yl)benzoyl]spiro[chromene-2,4′-piperidin]-4(3H)-one]
27 | 0.11 µM | CNC(=O)c1ccc2c(c1)C(=O)CC1(CCN(C(=O)c3cccc(-c4cc[nH]n4)c3)CC1)O2 [Ex. M4, N-methyl-4-oxo-1′-[3-(1H-pyrazol-3-yl)benzoyl]-3,4-dihydrospiro[chromene-2,4′-piperidine]-6-carboxamide]
28 | 1.4 µM | O=C1CC2(CCN(C(=O)c3cccc(-c4cc[nH]n4)c3)CC2)Oc2c(Cl)cc(Cl)cc21 [Ex. M35, 6,8-dichloro-1′-[3-(1H-pyrazol-3-yl)benzoyl]spiro[chromene-2,4′-piperidin]-4(3H)-one]
29 | 0.233 µM | O=C1CC2(CCN(C(=O)c3cccc(-c4cc[nH]n4)c3)CC2)Oc2cc(Cl)ccc21 [Ex. M15, 7-chloro-1′-[3-(1H-pyrazol-3-yl)benzoyl]spiro[chromene-2,4′-piperidin]-4(3H)-one]

Same assay, conditions: Table of Examples O1-O4

Row | IC50 | Compound
30 | 0.455 µM | COc1cc(Cl)cc2c1C(=O)CC1(CCN(C(=O)c3cccc(-c4ccn[nH]4)c3)CC1)O2 [Ex. O3, 7-chloro-5-methoxy-1′-[3-(1H-pyrazol-5-yl)benzoyl]spiro[chromene-2,4′-piperidin]-4(3H)-one]
